Measurements reported in PMC5224969 (ChemMedChem, 2016).
Read-outs that look alike come from different tables or passages of the source.

Key:
BV-173 cells = experiment: MTT cell viability assay, BV-173; format: cell-based, human; details: read-out: IC50 BV-173
K562 cells = experiment: MTT cell viability assay, K562; format: cell-based, human; details: read-out: IC50 K562
Panc-1 cells = experiment: MTT cell viability assay, Panc-1; format: cell-based, human
Abl [1] = target: T1, Abl (Homo sapiens, UniProt P00519); experiment: standard P32 kinase assay, IC50, Abl; format: biochemical; details: for Net change in IC50 (%Dasatinib) Abl: compared to dasatinib; for IC50: read-out: IC50 Abl, P32 kinase assay, CrkL substrate, 200 μM ATP
T1 sequence (P00519 whole entry, species assumed): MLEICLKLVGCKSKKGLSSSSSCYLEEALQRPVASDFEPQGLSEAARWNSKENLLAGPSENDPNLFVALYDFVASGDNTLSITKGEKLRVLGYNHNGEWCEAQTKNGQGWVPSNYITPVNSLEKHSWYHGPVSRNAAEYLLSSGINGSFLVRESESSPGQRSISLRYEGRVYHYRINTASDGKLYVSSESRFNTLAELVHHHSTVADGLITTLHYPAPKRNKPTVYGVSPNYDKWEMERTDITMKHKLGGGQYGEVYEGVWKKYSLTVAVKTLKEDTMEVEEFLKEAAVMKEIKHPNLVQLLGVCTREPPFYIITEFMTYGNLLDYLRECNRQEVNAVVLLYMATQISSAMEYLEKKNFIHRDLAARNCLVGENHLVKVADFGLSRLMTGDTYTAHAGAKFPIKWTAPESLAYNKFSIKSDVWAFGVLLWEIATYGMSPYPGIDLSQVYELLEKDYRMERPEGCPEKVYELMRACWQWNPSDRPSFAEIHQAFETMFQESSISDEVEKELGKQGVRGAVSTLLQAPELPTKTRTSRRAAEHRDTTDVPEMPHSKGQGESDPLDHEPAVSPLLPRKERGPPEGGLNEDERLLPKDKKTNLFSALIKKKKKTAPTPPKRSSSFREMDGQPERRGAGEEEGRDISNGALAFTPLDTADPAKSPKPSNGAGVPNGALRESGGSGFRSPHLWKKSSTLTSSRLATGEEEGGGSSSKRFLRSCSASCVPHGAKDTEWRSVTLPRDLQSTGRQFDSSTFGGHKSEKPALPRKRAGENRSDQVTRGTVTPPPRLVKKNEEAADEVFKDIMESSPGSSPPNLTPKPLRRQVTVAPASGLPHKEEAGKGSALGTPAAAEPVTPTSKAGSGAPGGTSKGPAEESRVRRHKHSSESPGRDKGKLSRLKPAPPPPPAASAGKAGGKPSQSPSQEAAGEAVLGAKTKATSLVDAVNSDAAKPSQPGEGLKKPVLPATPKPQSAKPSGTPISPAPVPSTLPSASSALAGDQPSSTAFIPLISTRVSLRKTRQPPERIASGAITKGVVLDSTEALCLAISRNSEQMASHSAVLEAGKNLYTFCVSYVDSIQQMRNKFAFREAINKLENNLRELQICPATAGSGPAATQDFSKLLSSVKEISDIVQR

Csk = Csk (Homo sapiens, UniProt P41240); experiment: standard P32 kinase assay, IC50, Csk; format: biochemical; details: for Net change in IC50 (%Dasatinib) Csk: compared to dasatinib; for IC50: read-out: IC50 Csk, P32 kinase assay, polyE4Y substrate, 200 μM ATP
Src [2] = target: T2, Src (Homo sapiens, UniProt P12931); experiment: standard P32 kinase assay, IC50, Src catalytic domain; format: biochemical; details: for Net change in IC50 (%Dasatinib) Src: compared to dasatinib; for IC50: read-out: IC50 Src, P32 kinase assay, polyE4Y substrate, 200 μM ATP
T2 sequence (P12931 270-523 limits assumed, species assumed): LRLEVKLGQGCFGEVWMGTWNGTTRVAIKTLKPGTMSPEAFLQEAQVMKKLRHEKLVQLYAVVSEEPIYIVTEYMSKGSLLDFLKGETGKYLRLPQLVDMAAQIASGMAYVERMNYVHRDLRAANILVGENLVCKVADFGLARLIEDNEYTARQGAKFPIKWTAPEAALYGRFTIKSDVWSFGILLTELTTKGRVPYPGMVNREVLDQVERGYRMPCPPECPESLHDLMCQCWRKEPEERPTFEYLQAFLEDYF

[3] = tested on: PTK panel (Abl, Csk, Src); experiment: P32 kinase assay, average over the PTK panel; format: biochemical; details: average of Abl, compared to dasatinib
Abl [4] = target: T1, Abl; experiment: screening at a fixed concentration against Abl; format: biochemical; details: fixed concentration 250 pM
Src [5] = target: T2, Src; experiment: screening at a fixed concentration against Src; format: biochemical; details: fixed concentration 250 pM
[6] = stability in mouse plasma, LC/MS/MS; format: in vitro ADME

IC50 (K562 cells; Homo sapiens, K562, 72 h) [nM]	IC50 (Panc-1 cells; Homo sapiens, PANC-1, 72 h, read-out: IC50 Panc-1) [nM]	Selectivity A/S (ratio of IC50 Abl over Src) (Abl [1])	Net change in IC50 (%Dasatinib) Abl (Abl [1]) [%]	IC50 (Abl [1]) [nM]	Selectivity C/A (ratio of IC50 Csk over Abl) (Csk)	Selectivity C/S (ratio of IC50 Csk over Src) (Csk)	Net change in IC50 (%Dasatinib) Csk (Csk) [%]	IC50 (Csk) [nM]	Net change in IC50 (%Dasatinib) Src (Src [2]) [%]	IC50 (Src [2]) [nM]	Net change in IC50 (%Dasatinib) Avg [3] [%]	inhibition relative to dasatinib, Abl (Abl [4])	inhibition relative to dasatinib, Src (Src [5])	stability in mouse plasma ([6]; 0, 15, 30, 60, 120 min, dasatinib formation monitored)	T1/2 in mouse plasma ([6]; 0-120 min incubation) [min]	IC50 (K562 cells; MTT, 72 h) [nM]	IC50 Panc-1 (Panc-1 cells; MTT, 72 h)	SMILES	IC50 (BV-173 cells; Homo sapiens, BV-173, 72 h) [nM]	IC50 (BV-173 cells; MTT, 72 h) [nM]
< 0.0512	26300																	Cc1nc(Nc2ncc(C(=O)Nc3c(C)cccc3Cl)s2)cc(N2CCN(CCO)CC2)n1 [Compound 1, N-(2-chloro-6-methylphenyl)-2-((6-(4-(2-hydroxyethyl)piperazin-1-yl)-2-methylpyrimidin-4-yl)amino)thiazole-5-carboxamide, reference compound]	< 0.0512	
		> 7.7	285	3	7.0	> 53.8	200	21	5	< 0.39	163							Cc1nc(Nc2ncc(C(=O)Nc3c(C)cccc3Cl)s2)cc(N2CCN(CCOC(=O)[C@H](C)N)CC2)n1 [Compound 3]		
		> 6.4	169	2.1	2.6	> 16.7	−21	5.5	−11	< 0.33	46	inhibited comparably to dasatinib	inhibited comparably to dasatinib	completely metabolized	< 5	< 0.0512	no activity	CC(=O)OCCN1CCN(c2cc(Nc3ncc(C(=O)Nc4c(C)cccc4Cl)s3)nc(C)n2)CC1 [Compound 16]		< 0.0512
																		CN[C@@H]1C[C@H]2O[C@@](C)([C@@H]1OC)n1c3ccccc3c3c4c(c5c6ccccc6n2c5c31)C(=O)NC4 [Staurosporine, staurosporine]	4.77	
